The subject of this assay is CPA-CLP sepsis mouse model. Description: Combination effects of LPC and antibiotics (colistin, tobramycin, fusidin) in CPA-CLP sepsis mouse model (SEP013); single i.v. 6 hrs after CLP. Format: in vivo, ICR mice. To be noted: mpk: LPC 5, DW286aa 5, Colistin 5, Tobra 4, Fusidin 80, LPC + Colistin 5 + 5, LPC + Tobra 5 + 4, LPC + Fusidin 5 + 80. An excerpt:
CPA is well known as an immunosuppressive agent. […] Then, the abdomen was closed following the general procedure.
Then, body weight and mortality changes were observed.

Molecules are shown by their SMILES.

As to `CC(=O)O[C@H]1C[C@@]2(C)[C@@H](C[C@@H](O)[C@H]3[C@@]4(C)CC[C@@H](O)[C@@H](C)[C@@H]4CC[C@@]32C)/C1=C(\CCC=C(C)C)C(=O)O` [Fusidin, fusidic acid], the Mortalities by setting is: (1st CPA treat) 0; (2nd CPA treat) 0; (At CLP (day 0)) 0; (Day 1) 2; (Day 2) 5; (Day 3) 1. Moreover, where the note is “Total”, the Mortalities is reported as 8. The Survivalities reads like this: (1st CPA treat) 100%; (2nd CPA treat) 100%; (At CLP (day 0)) 100%; (Day 1) 80%; (Day 2) 30%; (Day 3) 20%. The Survivalities (Total) amounted to 20%.

These data come from patent publication US9446061B2, “Composition containing antibiotics and lysophosphatidylcholine for boosting immunity or treatment of bacterial infections” (priority 2011, dated 2016).
